# Measured values as given in patent US7071211B2, “Small organic molecules that increase the activity of gelatinase a in ocular cells” (Bausch & Lomb Inc., priority 2002, dated 2006).
# Legend:
# [1] = system: MT-MMP; assay: Thiopeptolide assay of cell-associated gelatinase activity ascribed to MT-MMP in TM cells; format: cell-based, Rhesus monkey; conditions: for Percent Activation Over control value: 48 hours incubation, OD 410 nm vs CACM control
# Procedure: Two days before molecule testing, the medium is replace by a defined, serum-free medium such as Minimum Essential Medium (MEM) containing defined supplements as described by Schachtschabel and Binninger, Z.f.Gerontol. […] Unless specifically noted, all molecules tested were prepared as stock solutions in dimethyl sulfoxide (DMSO) with a final concentration of 10 mg/ml. The stocks were stored in a dessicator at −20 degrees Celsius. In testing the molecules, the molecules were diluted to final concentrations of 0.3 ug/ml and 15 ug/ml in a simplified culture medium based on Ames' medium, called Concanavalin A (Con A) conditioning medium (CACM). The monkey TM cells were incubated with the test molecules for 48 hours. Control medium of CACM plus DMSO and a positive control with 5 ug/ml Con A plus DMSO were run in parallel. […] Next 100 uL of a doubly (2×) concentrated mixture of the thiopeptolide substrate (from a forty times (40×) concentrated DMSO stock, to give 1 mmol/L final concentration) freshly combined with the thiol reagent (5,5′dithiobis(2-nitrobenzoic acid (DTNB) from a twenty times (20×) concentrated DMSO stock to give 1 mmol/L) were added to each well and were incubated at 37 degrees Celsius for two hours with gentle agitation.
# At the end of the incubation period, by means of a spectrophoto-metric plate reader, the optical density (OD) at 410 nm was determined for each well after automatic subtraction of a blank value for a well containing reaction mixture but without cells. The average OD at the two-hour end point for each test molecule at all concentrations in triplicate was calculated. This calculation was interpreted to be a measure of cell-associated MT-MMP level, equivalently defined as either its activity (a catalytic property of the enzyme) or expression (number of functional molecules). The percent difference in OD for each sample compared to the CACM control reflects the effectiveness of each test molecule or combination of molecules in eliciting increases in MT-MMP levels. As an alternate to the end point OD reading, one may use the mean rate of appearance of the reaction product (mean V), calculated from the best linear fit of the data to absorbance vs. time.
# TM cells were exposed to molecules and combinations of molecules by means of simultaneous addition, from separate stocks, to incubation medium.
# [2] = system: MT-MMP; assay: Co-activation thiopeptolide assay (test compound with Con A or a second test compound) in TM cells; format: cell-based, Rhesus monkey
# From the text: Concanavalin A (Con A) binds to mannose groups on cell membrane gycoproteins. Because of its tetravalent nature, Con A binding leads to oligomerization of these “receptors,” possibly in the form of heterogeneous aggregates. Con A stimulation elicits increased expression of MT-MMP with concomitant ability to activate proGelA. The response, as measured by the magnitude of zymographic bands and by thiopeptolide assay, is dose-dependent. Thus the effects of co-activation using a submaximal dose of Con A plus treatment with a small molecule that may or may not be active by itself, are measured in the subject activation assay.
# For the coactivation assays, following the preliminary steps set forth above preceding incubation with test compounds in Example 1, cells subsequently undergo one of the following protocols. • Protocol 1. Cells are incubated with a particular test compound for twenty-four hours. This incubation period is followed by a second twenty-four hour incubation period, in which the culture medium containing the first test compound is completely replaced by medium containing 5 ug/ml Con A. • Protocol 2. Cells are incubated with a particular first test compound for twenty-four hours, followed by a second forty-eight hour incubation in which the medium containing the first test compound is completely replaced by medium containing either Con A, as described above, or a second test compound. • Protocol 3. Cells are incubated with a combination of a test compound together with 5 ug/ml Con A for forty-eight hours.
# Two controls, with or without 5 ug/ml Con A are run in parallel as described in Example 1. After incubation with these agents, cells are processed in equivalently to those in Example 1. Instead of comparison of the OD values with a CACM control, the results are compared with samples using Con A alone, or with a single test compound as described in Protocol 2 above, as set forth in Table 5 below.
# [3] = system: MT1-MMP; conditions: Alexander and Acott 1999; cited from earlier work
# [4] = system: MT1-MMP; conditions: human cervical fibroblasts; Ito et al. 1998; cited from earlier work
molecule,measurement,setting,value
CC(C)N(CCCOc1cccc2ccccc12)C(N)=O [Molecule 6],Percent Activation Over control value,[1]; Conc. 1.0 umol/L,2.2%
same,Percent Activation Over control value,[1]; Conc. 52.4 umol/L,207.9%
same,"Activity (% increase over Con A above, or as otherwise noted)","[2]; Protocol 1 (24 h test compound, then 24 h 5 ug/ml Con A), Conc. 104.8 umol/L with Con A",183.9%
same,"Activity (% increase over Con A above, or as otherwise noted)","[2]; Protocol 2 (24 h test compound, then 48 h Con A), Conc. 34.9 umol/L with Con A",49.0%
same,"Activity (% increase over Con A above, or as otherwise noted)","[2]; Protocol 2 (24 h test compound, then 48 h Con A), Conc. 100.0 umol/L with Con A",70.9%
"CCCCCCCCCCCCCC(=O)O[C@@H]1[C@@H](C)[C@@]2(O)[C@@H](C=C(CO)C[C@]3(O)C(=O)C(C)=C[C@@H]23)[C@@H]2C(C)(C)[C@]12OC(C)=O [phorbol ester, phorbol 12-myristate 13-acetate]",Expression of MT1-MMP,[3],increased expression of MT1-MMP
CC(C)N(CC(O)COc1cccc2ccccc12)C(N)=O (stereo not shown) [Molecule 4],Percent Activation Over control value,[1]; Conc. 1.0 umol/L,5.9%
same,Percent Activation Over control value,[1]; Conc. 49.6 umol/L,73.4%
NC(=O)N1c2ccccc2C=Cc2ccccc21 [Molecule 14],Percent Activation Over control value,[1]; Conc. 1.27 umol/L,7.7%
same,Percent Activation Over control value,[1]; Conc. 63.49 umol/L,115.6%
N=C(N)NNC(O)c1c(Cl)cccc1Cl (stereo not shown) [Molecule 12],Percent Activation Over control value,[1]; Conc. 1.05 umol/L,3.2%
same,Percent Activation Over control value,[1]; Conc. 52.53 umol/L,101.6%
CN1CCN(CCCN2c3ccccc3Sc3ccc(C(F)(F)F)cc32)CC1 [trifluoperazine],MT1-MMP-induced activation of Gelatinase A (GelA),[4],resulted in MT1-MMP-induced activation of Gelatinase A
Cc1cccc(Cl)c1/C=N/NC(=N)N [Molecule 8],Percent Activation Over control value,[1]; Conc. 2.6 umol/L,2.9%
same,Percent Activation Over control value,[1]; Conc. 12.98 umol/L,12.7%
same,Percent Activation Over control value,[1]; Conc. 64.91 umol/L,54.3%
same,Percent Activation Over control value,[1]; Conc. 129.81 umol/L,106.8%
CSC(=N)N/N=C/c1c(Cl)cccc1Cl [Molecule 11],Percent Activation Over control value,[1]; Conc. 1.14 umol/L,(−20.9) Percent
same,Percent Activation Over control value,[1]; Conc. 57.22 umol/L,88.1%
"Concanavalin A [Con A, reference compound]",Increased expression of MT-MMP on Con A stimulation (response),[1]; measured by magnitude of zymographic bands and by thiopeptolide assay,dose-dependent
COc1ccc(/C(C#N)=N/OC(=O)N2CCCCC2)cc1OC [Molecule 1],Percent Activation Over control value,[1]; Conc. 0.9 umol/L,48.1%
same,Percent Activation Over control value,[1]; Conc. 47.31 umol/L,260.4%
NCCCCCCNS(=O)(=O)c1cccc2c(Cl)cccc12 [Molecule W-7],MT1-MMP-induced activation of Gelatinase A (GelA),[4],not particularly pronounced
N#C/C(=N\OC(=O)N1CCCCC1)c1c(F)cccc1F [Molecule 2],Percent Activation Over control value,[1]; Conc. 1.0 umol/L,33.8%
same,Percent Activation Over control value,[1]; Conc. 51.1.1 umol/L,420.5%
CNC(=O)N(CCOc1cccc(Cl)c1Cl)C(C)C [Molecule 7],Percent Activation Over control value,[1]; Conc. 1.0 umol/L,(−7.9) Percent
same,Percent Activation Over control value,[1]; Conc. 49.2 umol/L,274.0%
same,"Activity (% increase over Con A above, or as otherwise noted)","[2]; Protocol 2 (24 h test compound, then 48 h Con A), Conc. 49.1 umol/L with Con A",59.8%
CC/C(=N\NC(=N)N)c1ccccc1 [Molecule 9],Percent Activation Over control value,[1]; Conc. 1.18 umol/L,21.4%
same,Percent Activation Over control value,[1]; Conc. 118.44 umol/L,82.4%
CC(C#N)c1ccc2c(c1)N(C)C1C=CC=CC1S2 (stereo not shown) [Molecule 13],Percent Activation Over control value,[1]; Conc. 1.1 umol/L,74.6%
same,Percent Activation Over control value,[1]; Conc. 55.9 umol/L,68.5%
same,"Activity (% increase over Con A above, or as otherwise noted)","[2]; Protocol 1 (24 h test compound, then 24 h 5 ug/ml Con A), Conc. 1.1 umol/L with Con A",18.1%
same,"Activity (% increase over Con A above, or as otherwise noted)","[2]; Protocol 1 (24 h test compound, then 24 h 5 ug/ml Con A), Conc. 55.9 umol/L with Con A",109.5%
